Data on 14 compounds can be found in patent publication US4656192A, “Tropolone derivatives, processes for the preparation thereof and the use thereof as anti-tumor agents” (Mect Corporation, priority 1984, dated 1987).

The subject of one series is KB-cells. Put plainly: KB-cell growth inhibition tests. Format: cell-based. To be noted: Homo sapiens, 48 h, MEM-10% calf serum, 5% CO2, 37° C., sample added second day, surviving cells counted fourth day, substantially 50% growth inhibition vs sample-free control, read-out: KB cell growth inhibition ED50. On the procedure: KB-cells were placed in an Eagles minimal essential medium (MEM)-10% calf serum medium and cultered in a 5 % carbon dioxide atmosphere at 37° C. in an incubator. The cells thus treated were used in the tests. On the first day, the KB cells were diluted to a concentration of 2×10^4 /ml 3 ml of the resulting suspension was placed in watch glasses having a diameter of 60 mm. On the second day, 100, 30, 10, 3 and 1 μg/ml of each sample to be tested was added thereto and the culture was continued under the same conditions as above. On the fourth day, the surviving cells were taken out of the watch glass by meand of trypsin and the number of the cells was counted. The concentration of the sample required for obtaining substantially 50 % growth inhibition based on the sample-free control (ED50) was determined. The cancer cell growth inhibition effect of the sample was shown by ED50.

For a further series, the system named is P388 cancer cells. Put plainly: Tests of life-prolongation effects on cancered mice (P388, i.p.). To be noted: Mus musculus, P388, ip, i.p. on first and fifth day, P388 in CDF mice, read-out: Life-prolongation effects T/C %. It counts as in vivo. On the procedure: 10^6 P388 cancer cells were grafted into groups of CDF mice. Each group consisted of six mice. On the first day and the fifth day, a sample to be tested was administered to the mice intraperitoneally. The life-prolongation effects were shown in terms of the ratio of the number of surviving days of the mice in the treated group to that in the control group (T/C %).

The next series can be described thus: Acute toxicity in mice. The conditions noted are these: mouse, in vivo, male mice. The source says: The compounds of the present invention have only a low acute toxicity. For example, the acute toxicities of typical compounds, i.e., α,α-bis(2-hydroxy-6-isopropyl-tropon-3-yl)toluene (IIIa) and α,α-bis(2-hydroxy-6-isopropyl-tropon-3-yl)-4-methoxytoluene (IIIb) have LD50 as shown in the following table: […]

Values after ≈ are worked out from the molar mass of the structure shown.

Turning to `CC(C)c1ccc(C(c2ccccc2)c2ccc(C(C)C)cc(=O)c2O)c(O)c(=O)c1` [IIIa, α,α-bis(2-hydroxy-6-isopropyl-tropon-3-yl)toluene], the IC50 with KB-cells is less than 0.3 µg/mL. Besides, the response vs control in vivo at 1.25 mg/kg with P388 cancer cells (1.25 mg/kg) worked out at 132%. Besides, the response vs control in vivo at 5 mg/kg with P388 cancer cells is 188%. Also, the LD50 in the series “Acute toxicity in mice” (ip) is 5.5 mg/kg; in “Acute toxicity in mice” (iv) it was 5.8 mg/kg; in the series “Acute toxicity in mice” (po) it was greater than 5000 mg/kg.

For `COc1ccc(C(c2ccc(C(C)C)cc(=O)c2O)c2ccc(C(C)C)cc(=O)c2O)cc1` [IIIb, α,α-bis(2-hydroxy-6-isopropyl-tropon-3-yl)-4-methoxytoluene], the IC50 in the series with KB-cells was less than 0.3 µg/mL. In addition, the response vs control in vivo at 0.62 mg/kg in the series on P388 cancer cells (0.62 mg/kg) worked out at 127%. Moreover, the response vs control in vivo at 5 mg/kg in the series on P388 cancer cells came out at 173%. Further, the LD50 in the series “Acute toxicity in mice” (ip) is 11.2 mg/kg; in “Acute toxicity in mice” (iv) it was 9.1 mg/kg; in the series “Acute toxicity in mice” (po), greater than 5000 mg/kg.

Consider `Cc1ccc(C(c2ccc(C(C)C)cc(=O)c2O)c2ccc(C(C)C)cc(=O)c2O)cc1` [IIIc, α,α-bis(2-hydroxy-6-isopropyl-tropon-3-yl)-4-methyltoluene], for which, in the series on KB-cells, the IC50 is 1.45 µg/mL (≈ 3.37 µM). For the same compound, in the series with P388 cancer cells, the response vs control in vivo at 2.5 mg/kg is 125% and the response vs control in vivo at 10 mg/kg amounted to 163%.

As to `CC(C)c1ccc(C(c2ccc(Cl)cc2)c2ccc(C(C)C)cc(=O)c2O)c(O)c(=O)c1` [IIId, α,α-bis(2-hydroxy-6-isopropyl-tropon-3yl)-4-chlorotoluene], the IC50 in the series on KB-cells was 2 µg/mL (≈ 4.43 µM). In addition, in the series on P388 cancer cells, the response vs control in vivo at 2.5 mg/kg amounted to 124% and the response vs control in vivo at 10 mg/kg was 144%.

Regarding `CC(C)c1ccc(C(c2ccc(N(C)C)cc2)c2ccc(C(C)C)cc(=O)c2O)c(O)c(=O)c1` [IIIe, α,α-bis(2-hydroxy-6-isopropyl-tropon-3-yl)-4-(N,N-dimethylamino)toluene], the IC50 with KB-cells turned out to be 0.69 µg/mL (≈ 1.5 µM). Moreover, the response vs control in vivo at 2.5 mg/kg in the series with P388 cancer cells amounted to 141%.

For `CC(C)c1ccc(C2OCCc3ccccc32)c(O)c(=O)c1` (stereo not drawn) [IIa, 3-(1-isochromanyl)-6-isopropyltropolone], the IC50 with KB-cells is less than 0.3 µg/mL. In the series with P388 cancer cells, the response vs control in vivo at 100 mg/kg was 126%.

Turning to `O=c1ccccc(C2OCCc3ccccc32)c1O` (stereo not drawn) [IIb, 3-(1-isochromanyl)tropolone], the response vs control in vivo at 100 mg/kg with P388 cancer cells was 96%.

For the compound `COc1ccc(C(c2cc(C(C)C)ccc(=O)c2O)c2cc(C(C)C)ccc(=O)c2O)cc1` [IVa, α,α-bis(2-hydroxy-5-isopropyltropon-3-yl)-4-methoxytoluene], in the series on KB-cells, the IC50 was found to be 0.3 µg/mL (≈ 0.672 µM). For the same compound, in the series on P388 cancer cells, the response vs control in vivo at 2.5 mg/kg was determined as 137% and the response vs control in vivo at 10 mg/kg came out at 147%.

Consider `CCOC(c1ccccc1)c1ccc(C(C)C)cc(=O)c1O` (stereo not drawn) [Ia], for which the IC50 in the series on KB-cells was less than 0.3 µg/mL. In the series with P388 cancer cells, the response vs control in vivo at 200 mg/kg turned out to be 109%.

As for `CCOC(c1ccc(C)cc1)c1ccc(C(C)C)cc(=O)c1O` (stereo not drawn) [Ib, 3-(α-ethoxy-4-methylbenzyl)-6-isopropyltropolone], in the series with KB-cells, the IC50 turned out to be 6.2 µg/mL (≈ 19.8 µM). Besides, the response vs control in vivo at 400 mg/kg in the series on P388 cancer cells was 125%.

For the compound `CCOC(c1ccc(OC)cc1)c1ccc(C(C)C)cc(=O)c1O` (stereo not drawn) [Ic, 3-(α-ethoxy-4-methoxybenzyl)-6-isopropyltropolone], the IC50 in the series with KB-cells was 0.51 µg/mL (≈ 1.55 µM). Also, the response vs control in vivo at 100 mg/kg in the series with P388 cancer cells was found to be 140%.

Turning to `CCOC(c1ccc(N(C)C)cc1)c1ccc(C(C)C)cc(=O)c1O` (stereo not drawn) [Id, 3-[α-ethoxy-4-(N,N-dimethylamino)benzyl]-6-isopropyltropolone], the IC50 with KB-cells is 0.59 µg/mL (≈ 1.73 µM). For the same compound, the response vs control in vivo at 100 mg/kg with P388 cancer cells was 136%.

With `CC(C)c1ccc(C(c2ccccc2)c2ccccc2)c(O)c(=O)c1` [Ie, 3-benzhydryl-6-isopropyltropolone], the IC50 in the series on KB-cells came out at 1.39 µg/mL (≈ 4.21 µM). Also, in the series with P388 cancer cells, the response vs control in vivo at 200 mg/kg turned out to be 123% and the response vs control in vivo at 400 mg/kg stood at 132%.

`CC(C)c1ccc(Cc2ccccc2)c(O)c(=O)c1` [If, 3-benzyl-6-isopropyltropolone]: the IC50 with KB-cells amounted to 0.56 µg/mL (≈ 2.2 µM). Besides, the response vs control in vivo at 200 mg/kg with P388 cancer cells turned out to be 97%.
